According to the NIST ThermoML archive (doi:10.1021/acs.jced.9b00507):

Assay: xn = mol fraction of the nth substance listed
Conditions: 100 kPa, Liquid; for viscosity: Concentric cylinders viscometry; for mass density: Vibrating tube method

CCCCCCn1cc[n+](C)c1.O=[N+]([O-])[O-] [1-hexyl-3-methylimidazolium nitrate] + CCCCCCCCO
Conditions	mass density [kg/m3]	viscosity [mPa·s]
293.15 K, x1 = 0.0806	856.1	15.49
293.15 K, x1 = 0.1591	885.1	23.39
293.15 K, x1 = 0.2392	913.2	34.36
293.15 K, x1 = 0.3493	949.6	55.85
293.15 K, x1 = 0.4396	977.6	83.56
293.15 K, x1 = 0.5621	1013.2	149.62
293.15 K, x1 = 0.649	1036.9	222.84
293.15 K, x1 = 0.7407	1060.6	331.13
293.15 K, x1 = 0.8495	1087	504.66
293.15 K, x1 = 0.9397	1107.4	677.63
293.15 K, x1 = 1	1120.3	804.17
298.15 K, x1 = 0.0806	852.6	11.3
298.15 K, x1 = 0.1591	881.4	15.96
298.15 K, x1 = 0.2392	909.5	22.23
298.15 K, x1 = 0.3493	946	34.83
298.15 K, x1 = 0.4396	974	51.05
298.15 K, x1 = 0.5621	1009.7	89.33
298.15 K, x1 = 0.649	1033.6	133.05
298.15 K, x1 = 0.7407	1057.3	205.44
298.15 K, x1 = 0.8495	1083.8	321.84
298.15 K, x1 = 0.9397	1104.4	446.63
298.15 K, x1 = 1	1117.5	545.25
303.15 K, x1 = 0.0806	848.9	8.53
303.15 K, x1 = 0.1591	877.7	11.46
303.15 K, x1 = 0.2392	905.8	15.38
303.15 K, x1 = 0.3493	942.3	23.23
303.15 K, x1 = 0.4396	970.3	33.11
303.15 K, x1 = 0.5621	1006.1	54.2
303.15 K, x1 = 0.649	1030	78.89
303.15 K, x1 = 0.7407	1053.8	122.74
303.15 K, x1 = 0.8495	1080.4	203.15
303.15 K, x1 = 0.9397	1101.1	292.37
303.15 K, x1 = 1	1114.3	369.14
308.15 K, x1 = 0.0806	845.3	6.7
308.15 K, x1 = 0.1591	874.1	8.47
308.15 K, x1 = 0.2392	902.1	10.57
308.15 K, x1 = 0.3493	938.6	14.52
308.15 K, x1 = 0.4396	966.7	19.63
308.15 K, x1 = 0.5621	1002.5	32.58
308.15 K, x1 = 0.649	1026.4	47.1
308.15 K, x1 = 0.7407	1050.3	73.28
308.15 K, x1 = 0.8495	1077	127.64
308.15 K, x1 = 0.9397	1097.8	197.38
308.15 K, x1 = 1	1111.1	257.59
313.15 K, x1 = 0.0806	841.7	5.41
313.15 K, x1 = 0.1591	870.4	6.35
313.15 K, x1 = 0.2392	898.4	7.59
313.15 K, x1 = 0.3493	934.8	10
313.15 K, x1 = 0.4396	963	12.88
313.15 K, x1 = 0.5621	998.8	19.77
313.15 K, x1 = 0.649	1022.7	28.31
313.15 K, x1 = 0.7407	1046.7	44.73
313.15 K, x1 = 0.8495	1073.5	81.32
313.15 K, x1 = 0.9397	1094.4	135.25
313.15 K, x1 = 1	1107.8	185.67
318.15 K, x1 = 0.0806	838	4.25
318.15 K, x1 = 0.1591	866.7	4.67
318.15 K, x1 = 0.2392	894.7	5.41
318.15 K, x1 = 0.3493	931.2	7.05
318.15 K, x1 = 0.4396	959.3	8.91
318.15 K, x1 = 0.5621	995.2	13.87
318.15 K, x1 = 0.649	1019.2	19.95
318.15 K, x1 = 0.7407	1043.2	31.92
318.15 K, x1 = 0.8495	1070.1	56.98
318.15 K, x1 = 0.9397	1091.1	99.97
318.15 K, x1 = 1	1104.7	140.18
323.15 K, x1 = 0.0806	834.4	3.56
323.15 K, x1 = 0.1591	863	3.84
323.15 K, x1 = 0.2392	891	4.28
323.15 K, x1 = 0.3493	927.5	5.25
323.15 K, x1 = 0.4396	955.7	6.46
323.15 K, x1 = 0.5621	991.6	9.46
323.15 K, x1 = 0.649	1015.7	13.58
323.15 K, x1 = 0.7407	1039.8	22.08
323.15 K, x1 = 0.8495	1066.8	42.16
323.15 K, x1 = 0.9397	1087.9	76.46
323.15 K, x1 = 1	1101.6	110.94
